Laboratory results: patent publication US20250257034A1, “INDOLE DERIVATIVES AS SEROTONERGIC AGENTS USEFUL FOR THE TREATMENT OF DISORDERS RELATED THERETO” (priority 2023, published 2025)
Read-outs that look alike come from different tables or passages of the source.

How the values were obtained:
[1] = Pharmacokinetic studies in rat (i.v.); type: in vivo; conditions: dose 1.37 mg/kg (I-71, I-128), 1.33 mg/kg ((S) I-67); for concentration at 0.25 h / concentration at 1 h / concentration at 4 h / AUC(0-t) / half-life: male, Sprague-Dawley, rat, plasma; for concentration at 0.25 h / concentration at 1 h / concentration at 4 h: intravenous; for concentration at 0.25 h / concentration at 1 h / concentration at 4 h / Plasma concentration: rat i.v.; for AUC(0-t) / half-life: iv, rat plasma, i.v.; for half-life: estimated from 2 points only; for concentration at 4 h / Plasma concentration: 4 h
Procedure, shortened: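 Male Sprague-Dawley rats (~225-350 g) received compounds intravenously via tail vein in 5% Tween-80 in saline. Saphenous blood was sampled at 0.25, 1 and 4 h and analysed by LC-MS/MS. t1/2 and AUC0-tlast came from non-compartmental analysis using the linear up/log down trapezoidal rule.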

[2] = Human liver microsomes stability; type: in vitro ADME; conditions: human liver microsomes; for half-life at 2 μM / microsomal CLint at 2 μM: 2 μM compound, 0.5 mg/mL; for microsomal CLint at 2 μM: read-out: CLint (μL/min/mg protein); for CLint scaled at 2 μM: read-out: Scaled-up CLint
Procedure, shortened: (§1)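 In this assay, 2 μM compound is incubated with NADPH-supplemented liver microsomes (human pooled; male rat; male mouse) at 37° C for up to 60 min. Depletion is followed by LC-MS/MS, and CLint is expressed per mg microsomal protein.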

[3] = Rat liver microsomes stability; type: in vitro ADME; conditions: rat liver microsomes; for half-life at 2 μM / CLint scaled at 2 μM / microsomal CLint at 2 μM: male, pooled liver microsomes; for half-life at 2 μM / microsomal CLint at 2 μM: 2 μM compound, 0.5 mg/mL; for CLint scaled at 2 μM: read-out: Scaled-up CLint; for microsomal CLint at 2 μM: rat, read-out: CLint (μL/min/mg protein)
Procedure, shortened: as §1

[4] = first individual rat (R01/R04), read-out: Plasma concentration
[5] = mean of 3 rats, read-out: Plasma concentration, Mean ± SD
[6] = second individual rat (R02/R05), read-out: Plasma concentration
[7] = third individual rat (R03/R06), read-out: Plasma concentration
[8] = first individual rat (R01/R04), read-out: AUC0-tlast
[9] = first individual rat (R01/R04), read-out: Apparent t1/2 (converted)
[10] = mean of 3 rats, read-out: AUC0-tlast, Mean ± SD
[11] = mean of 3 rats, read-out: Apparent t1/2, Mean ± SD (converted)
[12] = second individual rat (R02/R05), read-out: AUC0-tlast
[13] = second individual rat (R02/R05), read-out: Apparent t1/2 (converted)
[14] = third individual rat (R03/R06), read-out: AUC0-tlast
[15] = third individual rat (R03/R06), read-out: Apparent t1/2 (converted)

Compound | concentration at 0.25 h [1, 4] | concentration at 0.25 h [1, 5] | concentration at 0.25 h [1, 6] | concentration at 0.25 h [1, 7] | concentration at 1 h [1, 4] | concentration at 1 h [1, 5] | concentration at 1 h [1, 6] | concentration at 1 h [1, 7] | AUC(0-t) [1, 8] | half-life [1, 9] | AUC(0-t) [1, 10] | half-life [1, 11] | AUC(0-t) [1, 12] | half-life [1, 13] | AUC(0-t) [1, 14] | half-life [1, 15] | Predicted hepatic CL [2] | half-life at 2 μM [2] | microsomal CLint at 2 μM [2] | Remaining Percentage (%) ([2]; With Cofactors, 0 min) | other results
COc1ccc2[nH]cc(CCN(C)CCOC(F)F)c2c1 [Compound I-71, 2-(Difluoromethoxy)-N-(2-(5-methoxy-1H-indol-3-yl)ethyl)-N-methylethan-1-amine] | 292 ng/mL | 286 ± 6.03 ng/mL | 280 ng/mL | 287 ng/mL | 61.5 ng/mL | 82.5 ± 19.1 ng/mL | 87.2 ng/mL | 98.9 ng/mL | 253 ng·h/mL | 29.6 min | 275 ± 21.7 ng·h/mL | 31.2 ± 1.69 min | 275 ng·h/mL | 31.1 min | 297 ng·h/mL | 32.9 min | 17.80 mL/min/kg | 13.7 min | 101 µL/min/mg | 100.00% | concentration at 4 h [1, 4]: 1.27 ng/mL; concentration at 4 h [1, 5]: 1.82 ± 0.582 ng/mL; concentration at 4 h [1, 6]: 1.77 ng/mL; concentration at 4 h [1, 7]: 2.43 ng/mL; Remaining Percentage (%) ([2]; With Cofactors, 30 min): 26.55%; Remaining Percentage (%) ([2]; With Cofactors, 60 min): 4.78%; Remaining Percentage (%) ([2]; Without Cofactors, 0 min): 100.00%; Remaining Percentage (%) ([2]; Without Cofactors, 30 min): 98.77%; Remaining Percentage (%) ([2]; Without Cofactors, 60 min): 104.91%; CLint scaled at 2 μM [2]: 127 mL/min/kg; half-life at 2 μM [3]: 9.7 min; CLint scaled at 2 μM [3]: 256 mL/min/kg; microsomal CLint at 2 μM [3]: 143 µL/min/mg; Predicted hepatic CL [3]: 45.41 mL/min/kg; Remaining Percentage (%) ([3]; With Cofactors, 0 min): 100.00%; Remaining Percentage (%) ([3]; With Cofactors, 30 min): 10.63%; Remaining Percentage (%) ([3]; With Cofactors, 60 min): 1.37%; Remaining Percentage (%) ([3]; Without Cofactors, 0 min): 100.00%; Remaining Percentage (%) ([3]; Without Cofactors, 30 min): 96.79%; Remaining Percentage (%) ([3]; Without Cofactors, 60 min): 100.64%
CN(C)CCc1c[nH]c2ccc(OCCOC(F)F)cc12 [Compound I-128, 2-(5-(2-(Difluoromethoxy)ethoxy)-1H-indol-3-yl)-N,N-dimethylethan-1-amine] | 146 ng/mL | 138 ± 9.07 ng/mL | 128 ng/mL | 139 ng/mL | 19 ng/mL | 15.2 ± 3.32 ng/mL | 13.1 ng/mL | 13.4 ng/mL | 99 ng·h/mL | 15.3 min | 92.5 ± 6.63 ng·h/mL | 14.1 ± 1.04 min | 85.7 ng·h/mL | 13.7 min | 92.9 ng·h/mL | 13.3 min | 16.28 mL/min/kg | 22.8 min | 60.8 µL/min/mg | 100.00% | Plasma concentration ([1]; first individual rat (R01/R04)): No Peak; Plasma concentration ([1]; second individual rat (R02/R05)): No Peak; Plasma concentration ([1]; third individual rat (R03/R06)): No Peak; Remaining Percentage (%) ([2]; With Cofactors, 30 min): 41.35%; Remaining Percentage (%) ([2]; With Cofactors, 60 min): 16.15%; Remaining Percentage (%) ([2]; Without Cofactors, 0 min): 100.00%; Remaining Percentage (%) ([2]; Without Cofactors, 30 min): 39.57%; Remaining Percentage (%) ([2]; Without Cofactors, 60 min): 16.12%; CLint scaled at 2 μM [2]: 76.2 mL/min/kg; half-life at 2 μM [3]: 7.43 min; CLint scaled at 2 μM [3]: 334 mL/min/kg; microsomal CLint at 2 μM [3]: 187 µL/min/mg; Predicted hepatic CL [3]: 47.38 mL/min/kg; Remaining Percentage (%) ([3]; With Cofactors, 0 min): 100.00%; Remaining Percentage (%) ([3]; With Cofactors, 30 min): 6.09%; Remaining Percentage (%) ([3]; With Cofactors, 60 min): 0.56%; Remaining Percentage (%) ([3]; Without Cofactors, 0 min): 100.00%; Remaining Percentage (%) ([3]; Without Cofactors, 30 min): 70.92%; Remaining Percentage (%) ([3]; Without Cofactors, 60 min): 52.18%
